Data: PubChem BioAssay AID2060499 (Molecular Pharmacology Branch, DTP, NCI, 2025)
“And” between values parts separate entries of the source, which are not always exact repeats. Equal entries are not always repeated.

System: 777334-354-R2-J4-PDC tumor spheroids with HUVEC/MSC, viability
Test: Anticancer human tumor 777334-354-R2-J4-PDC patient-derived pancreatic adenocarcinoma cell line growth inhibition [GQUAD]
Settings: for viability, T/C: stronger effect = lower value
Description: DNA G-quadruplex Stabilizer Agents in Combinations in Complex Spheroids
A high-throughput screen of multi-cell type tumor spheroids was designed to identify active combinations of DNA G-quadruplex stabilizer agents and targeted small molecules. Complex spheroids include a stromal component modeled by human endothelial cells (HUVEC) and fibroblasts modeled by human mesenchymal stem cells (MSCs). The concentration ranges selected for each drug and investigational agent were based upon clinically achievable concentrations if the clinical Cmax of the agent was known.
Compounds. The drugs and investigational agents: pidnarulex (CX-5461; NSC782164), APTO-253 (NSC789042), BRACO-19 (NSC847499), peposertib (NSC802822), ceralasertib (NSC780249), elimusertib (NSC800525), camonsertib (NSC841442), AZD-1390 (NSC803789), olaparib (NSC753686), talazoparib (NSC767125), ART-558 (NSC835418), sotorasib (NSC818433), MRTX-1133 (NSC836407), SN-38 (NSC673596), topotecan (NSC609699), etoposide (NSC141540), doxorubicin (NSC123127), gemcitabine (NSC613327), 5-fluorouracil (NSC19893), paclitaxel (NSC125973), vemurafenib (NSC761431), panobinostat (NSC761190), R-306465 (JNJ-16241199; NSC773264), adavosertib (NSC754352), TP-3654 (NSC805149), carboplatin (NSC241240), KSQ-4279 (NSC840948), and staurosporine (NSC755774) were obtained from the National Cancer Institute (NCI) Developmental Therapeutics Program Chemical Repository (34). The FDA-approved anticancer drug set is available from the NCI Developmental Therapeutics Program. […] The stock solutions were prepared in dimethyl sulfoxide (DMSO, Sigma-Aldrich, St. Louis, MO, cat. D2650) at 800-fold the tested concentration and stored at -70 degrees C prior to their use. All drugs and investigational agents were tested over a range starting from a high concentration at or near the clinical Cmax and decreasing in half-log increments. If the clinical Cmax for an agent had not been determined, the highest concentration tested was 10 microM.
2.3 Cell Culture. All cells were maintained in an incubator at 37 degrees C and 5% CO2 with 95% humidity. The PDC lines were cultured according to standard operating procedures established by the NCI PDMR. All PDCs were thawed and cultured in Matrigel-coated flasks prepared with a working solution of 1X Ham's F-12 nutrient mix, without supplementation (Invitrogen, cat. 11765054), 100 U/mL penicillin-streptomycin (Invitrogen, cat. 15140122), and 2.5% Matrigel (Corning Inc., cat. 354248) for the first three passages. The 857933-349-R-J2-PDC line was cultured in 6C/Colon 1B media, which includes advanced DMEM/F-12 (Thermo Fisher Scientific, cat. 12634028), 10 mM HEPES (Thermo Fisher Scientific, cat. 15630080), 1X GlutaMAX supplement (Thermo Fisher Scientific, cat. 35050061), 0.1 mg/mL primocin (InvivoGen, cat. ant-pm-2), 10% defined fetal bovine serum, heat inactivated (HyClone Laboratories Inc., cat. SH30070.03HI), 50% L-WRN conditioned media (ATCC, cat. CRL-3276), 1.25 mM N-Acetyl-L-cysteine (Sigma-Aldrich, cat. A9165), 10 mM nicotinamide (Sigma-Aldrich, cat. N0636), 1X B-27 supplement (Thermo Fisher Scientific, cat. 17504044), 1X N-2 supplement (Thermo Fisher Scientific, cat. 17502048), 10 microM Y-27632 dihydrochloride (Tocris Bioscience, cat. 1254), and 50 ng/mL human EGF recombinant protein (Thermo Fisher Scientific, cat. PHG0311). The 485176-168-R4-J1-PDC line was cultured in Panc media, which includes all 6C/Colon 1B media components plus 100 ng/mL human FGF-10 (Thermo Fisher Scientific, cat. 100-26), 500 nM SB-431542 (Selleckchem, cat. S1067), and gastrin (Tocris, cat. 3006).
[…]

[1] = compound alone, run of 03/18/2024
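Also: spheroids exposed to compounds for 7 days before readout.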

Structure (SMILES)	viability, T/C (compound 0.0316 µM)	viability, T/C (compound 0.1 µM)	viability, T/C (compound 0.316 µM)	viability, T/C (compound 1 µM)	viability, T/C (compound 3.16 µM)	viability, T/C (compound 10 µM)	IC50 (curve of compound)	IC50 [1]	viability, T/C (compound 0.000999 µM)	viability, T/C (compound 0.00316 µM)	viability, T/C (compound 0.00999 µM)	viability, T/C (compound 0.0999 µM)
COc1cc(C2c3cc4c(cc3C(OC3OC5COC(C)OC5C(O)C3O)C3COC(=O)C23)OCO4)cc(OC)c1O (stereo not given)	94.6% and 85% and 95.3%	88.4% and 97.9% and 91.6%	88.8% and 89.8% and 94.8%	71.9% and 74.2% and 72.8%	69.3% and 64% and 61.6%	41.3% and 38.2% and 35.7%	6820 nM and 5690 nM and 5030 nM					
COc1ccc([C@@H](O)c2cc(-c3ncnc4cc(N5CCOCC5)ccc34)c(F)cc2Cl)nn1	88.9% and 85.9% and 100%	90.6% and 89.8% and 104%	94.2% and 88.9% and 91.9%	76.1% and 72.6% and 86.3%	55.1% and 55.7% and 51.5%	30.2% and 26.8% and 30.7%	3860 nM and 3820 nM and 3590 nM					
COc1cccc2c1C(=O)c1c(O)c3c(c(O)c1C2=O)CC(O)(C(=O)CO)CC3OC1CC(N)C(O)C(C)O1 (stereo not given)	95.8% and 98.8% and 102%	86.7% and 89.4% and 89.9%	69% and 68.8% and 73.9%	42% and 47.4% and 37.8%	22.2% and 23.6% and 27.6%	12.6% and 13% and 11.9%	713 nM and 819 nM and 733 nM					
COc1ncnc(C2CC2)c1-c1ncc2cnn(Cc3ccc(-c4nc(C(F)(F)F)cn4C(C)C)cc3)c2n1	102% and 98.3% (2×)	96.7% and 90.9% and 106%	103% and 98.9% and 98.6%	91.9% and 99.5% and 98.8%	102% and 100% and 99.3%	109% and 111% and 98.8%	> 10000 nM					
Cc1[nH]c2ccc(F)cc2c1-c1nc2c3cccnc3c3ncccc3c2[nH]1	101% [middle of 12 runs]	98% [middle of 12 runs]	97.4% [middle of 11 runs]	86.4% [middle of 12 runs]	43.9% [middle of 12 runs]			2.51 µM [middle of 7 runs]				
Cc1[nH]c2ccccc2c1CCNCc1ccc(/C=C/C(=O)NO)cc1	93.5% and 98.6% and 91.6%		32.1% and 29.1% and 35.9%				190 nM and 181 nM and 208 nM		99% and 100% (2×)	91.5% and 99.1% and 97.5%	106% and 114% and 102%	72.8% and 72.4% and 75%
Cc1cccc(N(C)C(=O)C2C(O)CCN2c2nc(C)cc(C(F)(F)F)c2C#N)c1 (stereo not given)	102% (2×) and 107%	108% and 104% and 87.8%	99.9% and 101% and 98.9%	87.3% and 100% and 95%	92.4% and 93.6% and 109%	96.5% and 85.7% and 94.7%	> 10000 nM					
Cc1cnc(CNC(=O)c2c(=O)c3ccc(N4CCCN(C)CC4)nc3n3c2sc2ccccc23)cn1	95.7% [middle of 12 runs]	88.5% [middle of 12 runs]	85.2% [middle of 12 runs]	76% [middle of 12 runs]	68.6% [middle of 12 runs]	54.9% [middle of 12 runs]		> 10000 nM and 7430 nM				
Cn1ncnc1[C@H]1c2n[nH]c(=O)c3cc(F)cc(c23)N[C@@H]1c1ccc(F)cc1	87.2% and 95.5% and 87.8%		97.3% and 83.1% and 102%				> 316 nM		95.4% and 87.7% and 92.6%	103% and 99.5% and 94.9%	99% and 100% and 110%	87.4% and 104% and 112%
Nc1ccn(C2OC(CO)C(O)C2(F)F)c(=O)n1 (stereo not given)	91.5% and 76.4% and 76.8%	73% and 69.4% and 80%	64.9% and 57.5% and 76.6%	51.7% and 46.7% and 49.9%	41.5% and 36.5% and 39.1%	32.9% and 28.9% and 31.4%	1210 nM and 707 nM and 1050 nM					
O=C(NO)c1cnc(N2CCN(S(=O)(=O)c3ccc4ccccc4c3)CC2)nc1	80.7% and 107% and 88.9%	89.8% and 86% and 83.7%	77.1% (2×) and 79.3%	58% and 59.4% and 44%	11.9% and 9.01% and 3.01%	0.93% and 0.25% and 0.19%	1200 nM and 1070 nM and 793 nM					
O=C(c1cc(Cc2n[nH]c(=O)c3ccccc23)ccc1F)N1CCN(C(=O)C2CC2)CC1	92.5% and 109% and 99%	111% and 84% and 105%	96.9% and 103% and 102%	84.4% and 89.3% and 94.1%	88.8% and 76.5% and 101%	77.2% and 75.9% and 79.5%	> 10000 nM					
O=c1[nH]cc(F)c(=O)[nH]1	103% (2×) and 96.5%	103% and 97.9% and 98.6%	104% and 107% and 115%	75.3% and 73.9% and 78%	69.9% and 72.7% and 71.7%	63.2% and 65.2% and 59.8%	> 10000 nM					
